Results: US20150094321A1, “COMBINATION” (GlaxoSmithKline LLC, priority 2009, published 2015)

What was measured:
Test in all cases: Cell line proliferation study
Assay type in all cases: cell-based, human
[1] = tested on: HCC2998; settings: HCC2998, colon; for IC50: Homo sapiens, HCC 2998, 72 hours, read-out: gIC50
Method: (§1) In a separate study, combination drug tests with Compounds A and B were conducted using a panel of cell lines from human colon cancers (n=26), lung cancers (n=15) and pancreatic cancers (n=6). Cell lines were obtained from commercial vendors (ATCC and DSMZ). Cell lines were grown in RPMI-1640 supplemented with 2 mM glutamine, 1 mM sodium pyruvate and 10% fetal bovine serum (except for Capan-1 and HuP-T4 which were grown with 20% fetal bovine serum) and maintained at 37° C. and 5% CO2 in a humid incubator. Assays were performed in 384 well microtiter plates with optimum seeding densities for each cell line.
(§2) The test compounds were prepared as 10 mM stocks in 100% DMSO. Further dilutions of the compounds were made in DMSO. Compound A was diluted horizontally in a separate 96 well microtiter plate in rows D-G using a 3-fold dilution series for 10 dilution points. Compound B was similarly diluted horizontally in a 96 well microtiter plate in rows B-E using a 3-fold dilution series for 10 dilution points.
(§3) The two compounds were combined using equal volumes from each drug plate into cell culture media. […] Both Compound A and Compound B were individually titrated in rows B and C (for Compound B) and rows F and G (for Compound A) of the merged drug plate.
(§4) A 1:10 dilution of the drugs was performed in cell culture media prior to addition to the cells.
(§5) The final concentration range for the test compounds was 250 to 0.013 nM for Compound A and 1000 to […] for Compound B. The positive control consisted of culture media with DMSO at 0.1% and cells. The negative control consisted of culture media with DMSO at 0.1%. The cell lines were incubated at 37° C., 5% CO2 in humid air for 72 hours. Cell proliferation was measured using the CellTiter Glo (Promega) reagent according to the manufacturer's protocol. The plates are treated with CellTiter Glo solution and are analyzed for RLU (relative light units) using a Molecular Devices SpectraMax M5 plate reader.
(§6) The percent intensity values were used in model 205 of XLfit (IDBS, Inc.) in Microsoft Excel to calculate gIC50 values using a 4 parameter logistical fit. The midpoint of the growth window (the gIC50) falls half way between the number of cells at the time of compound addition (T=0) and the growth of control cells treated with DMSO at 72 hrs. The number of cells at time zero (T0) is divided from the intensity value at the bottom of the response curve (Ymin) to generate a measure for cell death (Ymin/T0). A value below 1 for Ymin/T0 indicates stronger potency to induce cell death with the treatment when compared to higher values. […]

[2] = tested on: NCIH358; settings: NCIH358, lung; for IC50: Homo sapiens, NCI-H358, 72 hours, read-out: gIC50
Method: as §1, §2, §3, §4, §5, §6

[3] = tested on: BxPC3; settings: BxPC3, pancreas; for IC50: Homo sapiens, BXPC-3, 72 hours, read-out: gIC50
Method: as §1, §2, §3, §4, §5, §6

[4] = tested on: NCIH23; settings: NCIH23, lung; for IC50: Homo sapiens, NCI-H23, 72 hours, read-out: gIC50
Method: as §1, §2, §3, §4, §5, §6

[5] = tested on: HCT116; settings: HCT116, colon; for IC50: Homo sapiens, HCT-116, 72 hours, read-out: gIC50
Method: as §1, §2, §3, §4, §5, §6

[6] = tested on: HCT-15; settings: HC115, colon; for IC50: Homo sapiens, HCT-15, 72 hours, read-out: gIC50
Method: as §1, §2, §3, §4, §5, §6

[7] = tested on: Colo320HSR; settings: colon; for IC50: Homo sapiens, COLO-320-HSR, 72 hours, read-out: gIC50
Method: as §1, §2, §3, §4, §5, §6

[8] = tested on: DLD1; settings: DLD1, colon; for IC50: Homo sapiens, DLD-1, 72 hours, read-out: gIC50
Method: as §1, §2, §3, §4, §5, §6

[9] = tested on: NCIH460; settings: NCIH460, lung; for IC50: Homo sapiens, NCI-H460, 72 hours, read-out: gIC50
Method: as §1, §2, §3, §4, §5, §6

[10] = tested on: Colo320DM; settings: colon; for IC50: Homo sapiens, COLO 320DM, 72 hours, read-out: gIC50
Method: as §1, §2, §3, §4, §5, §6

[11] = tested on: Calu6; settings: Calu6, lung; for IC50: Homo sapiens, Calu-6, 72 hours, read-out: gIC50
Method: as §1, §2, §3, §4, §5, §6

[12] = tested on: NCIH508; settings: NCIH508, colon; for IC50: Homo sapiens, NCI-H508, 72 hours, read-out: gIC50
Method: as §1, §2, §3, §4, §5, §6

[13] = tested on: SW1116; settings: SW1116, colon; for IC50: Homo sapiens, SW 1116, 72 hours, read-out: gIC50
Method: as §1, §2, §3, §4, §5, §6

[14] = tested on: Colo201; settings: Colo201, colon; for IC50: Homo sapiens, COLO 201, 72 hours, read-out: gIC50
Method: as §1, §2, §3, §4, §5, §6

[15] = tested on: NCIH520; settings: NCIH520, lung; for IC50: Homo sapiens, NCI-H520, 72 hours, read-out: gIC50
Method: as §1, §2, §3, §4, §5, §6

[16] = tested on: NCIH2228; settings: NCIH2228, lung; for IC50: Homo sapiens, NCI-H2228, 72 hours, read-out: gIC50
Method: as §1, §2, §3, §4, §5, §6

[17] = tested on: NCIH747; settings: NCIH747, colon; for IC50: Homo sapiens, NCI-H747, 72 hours, read-out: gIC50
Method: as §1, §2, §3, §4, §5, §6

[18] = tested on: ASPC1; settings: ASPC1, pancreas; for IC50: Homo sapiens, 72 hours, read-out: gIC50
Method: as §1, §2, §3, §4, §5, §6

[19] = tested on: Colo205; settings: Colo205, colon; for IC50: Homo sapiens, COLO 205, 72 hours, read-out: gIC50
Method: as §1, §2, §3, §4, §5, §6

| SMILES | Ymin/T0 [1] | IC50 [1] [nM] | IC50 [2] [nM] | Ymin/T0 [2] | Ymin/T0 [3] | IC50 [3] [nM] | IC50 [4] [nM] | Ymin/T0 [4] | Ymin/T0 [5] | IC50 [5] [nM] | Ymin/T0 [6] | IC50 [6] [nM] | IC50 [7] [nM] | Ymin/T0 [7] | Ymin/T0 [8] | IC50 [8] [nM] | IC50 [9] [nM] | Ymin/T0 [9] | IC50 [10] [nM] | Ymin/T0 [10] | further results |
| --- | --- | --- | --- | --- | --- | --- | --- | --- | --- | --- | --- | --- | --- | --- | --- | --- | --- | --- | --- | --- | --- |
| CC(=O)Nc1cccc(-n2c(=O)n(C3CC3)c(=O)c3c(Nc4ccc(I)cc4F)n(C)c(=O)c(C)c32)c1 [Compound A, N-{3-[3-cyclopropyl-5-(2-fluoro-4-iodo-phenylamino)-6,8-dimethyl-2,4,7-trioxo-3,4,6,7-tetrahydro-2H-pyrido[4,3-d]pyrimidin-1-yl]phenyl}acetamide] | 2.13 | 16.7 | 17.3 | 10.7 | 20.86 | > 250 | > 250 | 36.3 | 19.40 | 23.2 | 57.0 | > 250 | > 250 | 78.4 | 397 | 342 | 63 | 39.1 | > 250 | 81.01 | Ymin/T0 [11]: 15.0; IC50 [11]: 53.1 nM; IC50 [12]: 22.6 nM; Ymin/T0 [12]: 15.22; IC50 [13]: 14.6 nM; Ymin/T0 [13]: 2.28; Ymin/T0 [14]: −8.96; IC50 [14]: 4 nM; IC50 [15]: > 250 nM; Ymin/T0 [15]: 70.2; IC50 [16]: > 250 nM; Ymin/T0 [16]: 39.7; IC50 [17]: 5.35 nM; Ymin/T0 [17]: 5.55; Ymin/T0 [18]: 13.6; IC50 [18]: 19.7 nM; Ymin/T0 [19]: −1.30; IC50 [19]: 0.77 nM |
| Cn1ncc(Cl)c1-c1cc(C(=O)N[C@H](CN)Cc2ccc(F)c(F)c2)oc1Cl [Compound B, N-{(1S)-2-amino-1-[(3,4-difluorophenyl)methyl]ethyl}-5-chloro-4-(4-chloro-1-methyl-1H-pyrazol-5-yl)-2-furancarboxamide] | −4.90 | 292 | > 1000 | 37.2 | 71.87 | > 1000 | > 1000 | 41.5 | 25.31 | > 1000 | 30.4 | > 1000 | > 1000 | 28.6 | 29.0 | > 1000 | 664 | 20.8 | > 1000 | 9.81 | Ymin/T0 [11]: 56.3; IC50 [11]: > 1000 nM; IC50 [12]: 68.2 nM; Ymin/T0 [12]: 11.12; IC50 [13]: > 1000 nM; Ymin/T0 [13]: 37.32; Ymin/T0 [14]: 80.16; IC50 [14]: > 1000 nM; IC50 [15]: 568 nM; Ymin/T0 [15]: 15.0; IC50 [16]: > 1000 nM; Ymin/T0 [16]: 37.1; IC50 [17]: > 1000 nM; Ymin/T0 [17]: 23.79; Ymin/T0 [18]: 42.9; IC50 [18]: > 1000 nM; Ymin/T0 [19]: 14.87; IC50 [19]: > 1000 nM |
